Experimental data from US20240294551A1 (AMGEN INC., priority 2022, published 2024).
Structures can show the parent of a compound that is named as a salt. Where two headings read alike, the source gives them in different places.

What was measured:
AsPC-1 cells = assay: AsPC-1 CTG Assay (CellTiter-Glo cell viability); format: cell-based, human; conditions: first value of the cell, read-out: G12D/C/V Cell Proliferation CTG (72 h) AsPC-1
How it was run: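 IC50 values derive from 4-parameter logistic fits of CellTiter-Glo luminescence, expressed relative to DMSO. Compound dilution series were applied to overnight-seeded AsPC-1 or SW620 cells (RPMI 1640, 10% FBS) for 72 h at 37 °C, 5% CO2.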

[1] = molecular target: GDP-bound KRAS protein (aa 1-169), containing both G12D and C118A amino acid substitutions (Homo sapiens (Human), UniProt P01116, C118A/G12D); assay: KRAS G12D Coupled Nucleotide Exchange Assay; format: biochemical
[2] = system: Phosphorylation of ERK1/2 in AsPC-1 cells; assay: Phospho-ERK1/2 MSD Assay; format: cell-based, human
How it was run: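 Read-out: MSD electrochemiluminescent detection of phosphorylated ERK1/2 in whole-cell lysates, fitted to a 4-parameter logistic curve for IC50. Prior to lysis, AsPC-1 cells (25,000 per well) received a 2 h compound dose-response at 37 °C.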

[3] = molecular target: His-tagged KRAS G12D protein (Homo sapiens (Human), UniProt P01116, G12D); assay: KRAS G12D TR-FRET Assay; format: binding
How it was run: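 Each incubation ran at room temperature: enzyme with compound for 30 minutes, peptide for one hour, and detection reagents (0.4 nM europium anti-6×His, 5 nM streptavidin-d2) for one hour more. Protein and peptide stocks were each diluted to 20 nM before addition.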

[4] = Homo sapiens, ASPC1, 72 h, AsPC-1, 72 h
[5] = read-out: KRAS G12D Coupled Exchange IC50
[6] = Homo sapiens, ASPC1, 2 h, read-out: 2 h p-ERK (AsPC-1 cells), IC50
[7] = read-out: KRAS G12D Binding IC50
[8] = Homo sapiens, ASPC1, 72 h, AsPC-1 cells (G12D), 72 h
[9] = 2 hours compound pre-incubation, read-out: KRAS G12D Coupled Exchange
[10] = Homo sapiens, ASPC1, 2 h, read-out: 2 h p-ERK (AsPC-1 cells)
[11] = TR-FRET, read-out: KRAS G12D Binding
[12] = 2 h, read-out: 2 h p-ERK (AsPC-1 cells), IC50

Molecule | IC50 (AsPC-1 cells; [4]) | IC50 [1, 5] | IC50 [2, 6] | IC50 [3, 7] | IC50 (AsPC-1 cells; [8]) | IC50 [1, 9] | IC50 [2, 10] | IC50 [3, 11] | IC50 (AsPC-1 cells; AsPC-1, 72 h) | IC50 [2, 12]
Cc1cc2[nH]ncc2c2c1CCCOC(=O)O[C@H]1CN(CC[C@H]1C)c1nc(OC[C@@]34CCCN3C[C@H](F)C4)nc3c(F)c-2ncc13 [Example 94, (17R,18R)-30-fluoro-24-(((2R,7aS)-2-fluorotetrahydro-1H-pyrrolo[1,2-a]pyrrol-7a(5H)-yl)methoxy)-9,18-dimethyl-14,16-dioxa-5,6,21,23,25,29-hexaazahexacyclo[24.3.1.1~17,21~.0~2,10~.0~3,7~.0~22,27~]hentriaconta-1(30),2,4,7,9,22,24,26,28-nonaen-15-one] | 1000 nM | 6 nM | 222 nM | 10 nM |  |  |  |  |  | 
O=C1CCCc2c(F)ccc3cc(O)cc(c23)-c2ncc3c(nc(OC[C@@]45CCCN4C[C@H](F)C5)nc3c2F)N2CCC[C@H](C2)O1 [Example 41, (15R)-22,31-Difluoro-8-(((2R,7aS)-2-fluorotetrahydro-1H-pyrrolo[1,2-a]pyrrol-7a(5H)-yl)methoxy)-27-hydroxy-16-oxa-3,7,9,11-tetraazahexacyclo[19.7.1.1˜2,6˜.1˜11,15˜.0˜5,10˜.0˜25,29˜]hentriaconta-1(28),2(31),3,5,7,9,21,23,25(29),26-decaen-17-one 2,2,2-trifluoroacetate salt] | 47 nM | 2 nM | 3 nM | 3 nM |  |  |  |  |  | 
CN1C(=O)CC[C@@H]2C[C@@H]2c2c(Cl)cc3[nH]ncc3c2-c2ncc3c(nc(OC[C@@]45CCCN4C[C@H](F)C5)nc3c2F)N2CCC[C@@H]1C2 [Example 128, (11S,13R,18R)-9-Chloro-31-fluoro-25-(((2R,7aS)-2-fluorotetrahydro-1H-pyrrolo[1,2-a]pyrrol-7a(5H)-yl)methoxy)-17-methyl-5,6,17,22,24,26,30-heptaazaheptacyclo[25.3.1.1˜18,22˜.0˜2,10˜.0˜3,7˜.0˜11,13˜.0˜23,28˜]dotriaconta-1(31),2,4,7,9,23,25,27,29-nonaen-16-one bis (2,2,2-trifluoroacetate)] | 1260 nM | 46 nM | 248 nM | 68 nM |  |  |  |  |  | 
(15R)-22,31-Difluoro-8-(((2R,7aS)-2-fluorotetrahydro-1H-pyrrolo[1,2-a]pyrrol-7a(5H)-yl)methoxy)-27-hydroxy-15-methyl-16-oxa-3,7,9,11-tetraazahexacyclo[19.7.1.1˜2,6˜.1˜11,15˜0.0˜5,10˜.0˜25,29˜]hentriaconta-1(28),2(31),3,5,7,9,21,23,25(29),26-decaen-17-one bis(2,2,2-trifluoroacetate) [Example 43] |  | 2 nM |  | 4 nM |  |  |  |  | 92 nM | 13 nM
C[C@@]12CCCN(C1)c1nc(OC[C@@]34CCCN3C[C@H](F)C4)nc3c(F)c(ncc13)-c1cccc3ccc(F)c(c13)CC[C@@H](F)C(=O)N2 [Example 2, (15R,18R)-18,22,31-trifluoro-8-(((2R,7aS)-2-fluorotetrahydro-1H-pyrrolo[1,2-a]pyrrol-7a(5H)-yl)methoxy)-15-methyl-3,7,9,11,16-pentaazahexacyclo[19.7.1.1˜2,6˜.1˜11,15˜.0˜5,10˜.0˜25,29˜]hentriaconta-1(28),2(31),3,5,7,9,21,23,25(29),26-decaen-17-one] | 4110 nM | 24 nM | 1400 nM | 50 nM |  |  |  |  |  | 
Fc1c2ncc3c(nc(OC[C@@]45CCCN4C[C@H](F)C5)nc13)N1CCC[C@@H](COCCCCc3c(Cl)cc4[nH]ncc4c3-2)C1 [Example 138] | 5000 nM | 2 nM | 13 nM | 4 nM |  |  |  |  |  | 
Cc1cc2[nH]ncc2c2c1/C=C\COC(=O)O[C@@H]1CCCN(C1)c1nc(OC[C@@]34CCCN3C[C@H](F)C4)nc3c(F)c-2ncc13 (single isomer, unassigned) [Example 123] | 650 nM | 4 nM | 104 nM | 8 nM |  |  |  |  |  | 
Cc1cc2[nH]ncc2c2c1CCCOC(=O)CC1CCCN(C1)c1nc(OC[C@@]34CCCN3C[C@H](F)C4)nc3c(F)c-2ncc13 (stereo partly drawn) [Example 39] |  | 8 nM |  | 12 nM |  |  |  |  | 191 nM | 16 nM

Now from value to molecule:

IC50 (AsPC-1 cells; [4]) | IC50 [1, 5] | IC50 [2, 6] | IC50 [3, 7] | IC50 (AsPC-1 cells; [8]) | IC50 [1, 9] | IC50 [2, 10] | IC50 [3, 11] | IC50 (AsPC-1 cells; AsPC-1, 72 h) | IC50 [2, 12] | Molecule
1080 nM | 2 nM | 342 nM | 4 nM |  |  |  |  |  |  | O=C1OCCCc2c(Cl)cc3[nH]ncc3c2-c2ncc3c(nc(OC[C@@]45CCCN4C[C@H](F)C5)nc3c2F)N2CCOC[C@]3(C2)C[C@@H](C3)O1 [Example 312, (1S,3S)-11-chloro-34-fluoro-25-(((2R,7aS)-2-fluorotetrahydro-1H-pyrrolo[1,2-a]pyrrol-7a(5H)-yl)methoxy)-4,6,31-trioxa-14,15,20,24,26,28-hexaazaheptacyclo[26.4.1.1~1,3~.1~19,23~.0~10,18~.0~13,17~.0~22,27~]pentatriaconta-10,12,15,17,19(34),20,22,24,26-nonaen-5-one]
 |  |  |  | 817 nM | 8 nM | 371 nM | 15 nM |  |  | CN(C)CC1(COc2nc3c4cnc(c(F)c4n2)-c2c(c(Cl)cc4[nH]ncc24)CCCCOCC2(F)CCCCN3C2)CC1 (stereo in doubt) [Example 400, 1-(1-((((26R)-18-chloro-26,32-difluoro-24-oxa-1,3,5,9,14,15-hexaazahexacyclo[24.4.1.1~6,10~.0~2,7~.0~11,19~.0~12,16~]dotriaconta-2,4,6,8,10(32),11,13,16,18-nonaen-4-yl)oxy)methyl)cyclopropyl)-N,N-dimethylmethanamine]
 |  |  |  | 49 nM | 1 nM | 2.5 nM | 6 nM |  |  | O[C@H]1C[C@H]2COCCCCc3c(Cl)cc4[nH]ncc4c3-c3ncc4c(nc(OC[C@@]56CCCN5C[C@H](F)C6)nc4c3F)N(C1)C2 [Example 407, (17R,19S)-9-chloro-30-fluoro-24-(((2R,7aS)-2-fluorotetrahydro-1H-pyrrolo[1,2-a]pyrrol-7a(5H)-yl)methoxy)-15-oxa-5,6,21,23,25,29-hexaazahexacyclo[24.3.1.1˜17,21˜.0˜2,10˜.0˜3,7˜.0˜22,27˜]hentriaconta-1(30),2,4,7,9,22,24,26,28-nonaen-19-ol]
487 nM | 8 nM | 181 nM | 12 nM |  |  |  |  |  |  | Fc1c2ncc3c(nc(OC[C@@]45CCCN4C[C@H](F)C5)nc13)N1CC(COCCCCc3c(Cl)cc4[nH]ncc4c3-2)CC2(CC2)C1 (stereo partly drawn) [Example 228]
 |  |  |  | 2 nM | 3 nM | 1.2 nM | 7 nM |  |  | O[C@]12C[C@@]3(CCCN(C3)c3nc(OC[C@@]45CCCN4C[C@H](F)C5)nc4c(F)c(ncc34)-c3c(c(Cl)cc4[nH]ncc34)CCc3cnc1o3)C2 [Example 396, (1S,3R)-11-chloro-33-fluoro-25-(((2R,7aS)-2-fluorotetrahydro-1H-pyrrolo[1,2-a]pyrrol-7a(5H)-yl)methoxy)-34-oxa-5,14,15,20,24,26,28-heptaazaoctacyclo[26.3.1.1~1,3~.1~4,7~.1~19,23~.0~10,18~.0~13,17~.0~22,27~]pentatriaconta-4,6,10,12,15,17,19(33),20,22,24,26-undecaen-3-ol]
5000 nM | 16 nM | 1780 nM | 32 nM |  |  |  |  |  |  | O=C1CCCc2c(Cl)cc3[nH]ncc3c2-c2ncc3c(nc(OC[C@@]45CCCN4C[C@H](F)C5)nc3c2F)N2CCCC3(CC(C3)N1)C2 [Example 274]
 |  |  |  | 2060 nM | 11 nM | 350 nM | 16 nM |  |  | Fc1c2ncc3c(nc(OC[C@@]45CCCN4C[C@H](F)C5)nc13)N1CCOC[C@@H](Cc3ncc(o3)CCc3c(Cl)cc4[nH]ncc4c3-2)C1 (single isomer, unassigned) [Example 376]
